“Also recorded” adds a separate entry of the source. Non-standard residues stand in square brackets, D forms with d. Residues, ends and D or L forms follow the SMILES beside them. Nle = CCCC[C@H](N)C(=O)O

The test system of test [1] is Pin1:Jun. In words: Pin1:Jun PCA. In kind it is cell-based, human. The conditions noted are these: for effect on Pin1:Jun assay: statins, FIG. 19B.
Test [2] has as its system CDKN1A(p21):Cdc2. In words: Cdc2:p21 PCA. The following applies: statins.
In test [3] the test system is Akt1:Pdk1. The test can be described thus: Akt1:Pdk1 PCA. The conditions noted are these: for Akt:Pdk1 complexes: 90 and 480 minutes after treatment.
From the text: (§4) For example, we monitored drug activity on growth factor-mediated signal transduction pathways involving protein kinase B (Akt) by assessing the complex between Akt1 and phosphatidylinositol-3-dependent kinase (Pdk1). We also monitored complexes containing Akt1 and the cyclin-dependent kinase inhibitor, p27 (CDKN1B; kip1), which reports on cell cycle regulatory processes.
Test [4] deals with Akt1:p27. In words: Akt1:p27 PCA. The following applies: for Akt:p27 complexes: 90 and 480 minutes after treatment.
From the text: as §4
The subject of test [5] is H-Ras:Raf-1. In words: H-Ras:Raf-1 PCA. The format is cell-based, human. The conditions noted are these: drug treatment, HEK293.
The target in test [6] is T1, PPAR-gamma:SRC-1 (Homo sapiens, UniProt P37231).
T1 sequence (P37231 1-477 isoform P37231-2): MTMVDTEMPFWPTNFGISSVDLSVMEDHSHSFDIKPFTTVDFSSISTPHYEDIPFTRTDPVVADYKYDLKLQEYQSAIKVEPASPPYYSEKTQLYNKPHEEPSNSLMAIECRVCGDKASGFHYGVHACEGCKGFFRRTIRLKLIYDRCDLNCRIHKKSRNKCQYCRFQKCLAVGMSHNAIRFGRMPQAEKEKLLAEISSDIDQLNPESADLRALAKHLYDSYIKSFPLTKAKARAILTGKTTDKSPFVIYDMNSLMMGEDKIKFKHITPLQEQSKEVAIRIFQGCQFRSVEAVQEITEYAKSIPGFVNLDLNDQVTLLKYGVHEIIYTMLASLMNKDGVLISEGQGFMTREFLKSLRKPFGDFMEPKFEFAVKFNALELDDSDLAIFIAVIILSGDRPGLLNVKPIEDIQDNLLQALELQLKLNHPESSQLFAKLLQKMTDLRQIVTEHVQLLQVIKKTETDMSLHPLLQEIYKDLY
The test can be described thus: PPAR-gamma:SRC-1 PCA. In kind it is cell-based. The conditions noted are these: serum-starved HEK293; for effect on PPAR-gamma:SRC-1 PCA: drug 6.5 hours prior to rosiglitazone 1.5 hours, FIG. 24B, C.

The test system of test [7] is phospho-ERK. In words: phospho-ERK (T202/Y204) immunofluorescence, high-content imaging in HEK293 cells. The format is cell-based, human. The following applies: for EGF-stimulated ERK phosphorylation: drug 90 min, hEGF during last 5 min. The method, then:
(§1) We assessed the effects of the above-mentioned compounds on the three pathways and used the results to construct pharmacological profiles for the agents. Human cells (HEK293) were treated with drugs and the phosphorylation status of the three downstream proteins was assessed in the absence or presence of epidermal growth factor (EGF). Cells were then fixed and probed with antisera generated against the phosphorylated forms of CREB (S133), ERK1/2 (phospho T*EY*), or phospho Hsp27 (S78/S82). The ERK1/2 antibodies specifically recognize the MAPK/ERK1 and MAPK/ERK2 protein kinases only when they are phosphorylated on Threonine 202 and Tyrosine 204 in the activation loop. […] Changes in the level and sub-cellular localization of a phosphorylated protein following treatment with a drug would indicate a functional connection between the drug and the pathway of interest.
(§2) Details of the methods used are as follows. HEK293T cells were seeded in black-walled, poly-lysine coated 96-well plates (Greiner) at a density of 30,000/well. After 24 hours, cells in duplicate wells were treated with combinations of different drugs and stimulus as follows: (a) 20 micromolar PD98059, micromolar SB203580, or vehicle alone for 90 minutes; and (b) as for (a), but with 100 ng/ml hEGF added to the cells during the last 5 min of drug treatment. The drugs were purchased from Calbiochem and hEGF was from Roche. Four sets of cells treated as described were prepared. The cells were rinsed once with PBS and fixed with 4% formaldehyde for 10 min. The cells were subsequently permeabilized with 0.25% Triton X-100 in PBS and incubated with 3% BSA for 30 min to block non-specific antibody binding. […]
(§3) Images were acquired using a Discovery-1 High Content Imaging System (Molecular Devices). Background fluorescence due to nonspecific binding by the secondary antibody was established with the use of cells that were incubated with BSA/PBS and without primary antibodies. […]

Test [8] concerns phospho-Hsp27. The test can be described thus: phospho-Hsp27 immunofluorescence, high-content imaging in HEK293 cells. In kind it is cell-based, human. The conditions noted are these: for EGF-induced Hsp27 phosphorylation: drug 90 min, hEGF during last 5 min. How it is done: as §1, §2, §3
Test [9] concerns phospho-CREB. In words: phospho-CREB (Ser133) immunofluorescence, high-content imaging in HEK293 cells. In kind it is cell-based, human. The method, then:
as §1
Details of the methods used are as follows. HEK293T cells were seeded in black-walled, poly-lysine coated 96-well plates (Greiner) at a density of 30,000/well. […]
as §3

In test [10] the test system is cyclinD1:Cdk4. In words: CyclinD1:Cdk4 PCA. In kind it is cell-based, human. The conditions noted are these: eight hours of treatment.
For test [11], the system named is Cofilin:Limk2. In words: Cofilin:Limk2 PCA. The following applies: drug treatment, HEK293.
Test [12] concerns the target beta-Arr2:beta2AR (Homo sapiens, UniProt P07550). In words: beta-Arr2:beta2AR PCA (with or without ISO). In kind it is cell-based.
The test system of test [13] is ELK: MAPK1. In words: Elk1:Mapk1 PCA. The conditions noted are these: 480 minutes; FIG. 17 bar 20.
In test [14] the test system is MAPK1:MKNK1. In words: Mknk1:Mapk1 PCA. The conditions noted are these: 480 minutes; bar 27.

As to `CC(C)n1c(/C=C/C(O)CC(O)CC(=O)O)c(-c2ccc(F)cc2)c2ccccc21` (stereo not drawn) [fluvastatin], the “effect on Pin1:Jun assay” value in test [1] is “pronounced inhibitory activity; also recorded: inhibited”.

As to `CC(C)c1nc(N(C)S(C)(=O)=O)nc(-c2ccc(F)cc2)c1/C=C/[C@@H](O)C[C@@H](O)CC(=O)O` [rosuvastatin], the “effect on Pin1:Jun assay” value in test [1] was “little activity”. The “activity on CDKN1A(p21):Cdc2 assay” value in test [2] is listed as “activity opposite from the other statins”.

For `Cc1ccc(S(=O)(=O)/C=C/C#N)cc1` [BAY 11-7082], the “total Akt:Pdk1 complexes” value in [3] (HEK293) was “not”. Also, the “nuclear Akt:p27 complexes” value in test [4] (HEK293) was “strongly inhibited”. Moreover, in [5], the “HRas:Raf1 complex” value is “inhibited”.

With `COc1cc2ncnc(Nc3cccc(Br)c3)c2cc1OC` [PD 153035], in test [6], the “effect on PPAR-gamma:SRC-1 PCA” value is recorded as “no appreciable effects”.

Regarding `CC(C)(C)n1nc(-c2ccc(Cl)cc2)c2c(N)ncnc21` [PP2], in [6] (drug 10 micromolar 6.5 hours prior to rosiglitazone 1.5 hours, p<0.0001 vs DMSO), the “increase of PPAR-gamma:SRC-1 complex” value was found to be 5 fold. Besides, in [6], the “effect on PPAR-gamma:SRC-1 PCA” value is “comparable to c-src siRNA”.

With `COc1cccc(-c2cc(=O)c3ccccc3o2)c1N` [PD98059], the “effect on PPAR-gamma:SRC-1 PCA” value in [6] is given as “no appreciable effects”. In test [7], the “EGF-stimulated ERK phosphorylation” value is given as “significantly blocked”. For the same compound, the “EGF-induced Hsp27 phosphorylation” value in test [8] was “no effect”. Moreover, in [9] (20 micromolar PD98059 90 min, hEGF during last 5 min), the “effect of EGF on phospho-CREB in presence of drug” value is on record as “reduced”.

For `C[S+]([O-])c1ccc(-c2nc(-c3ccc(F)cc3)c(-c3ccncc3)[nH]2)cc1` (stereo not drawn) [SB203580, 4-(4-fluorophenyl)-2-(4-methylsulfinylphenyl)-5-(4-pyridyl)1H-imidazole], the “EGF-stimulated ERK phosphorylation” value in test [7] was “no effect”. Further, the “EGF-induced Hsp27 phosphorylation” value in test [8] is listed as “blocked”.

`C=CCNC1=C2C[C@@H](C)C[C@H](OC)[C@H](O)[C@@H](C)/C=C(\C)[C@H](OC(N)=O)[C@@H](OC)/C=C\C=C(/C)C(=O)NC(=CC1=O)C2=O` [17-AAG, 17-(allylamino)-17-demethoxygeldanamycin]: in test [3], the “Akt:Pdk1 complexes” value was “negatively regulated”. Further, the “Akt:p27 complexes” value in test [4] is “negatively regulated”.

As to `CCCC[C@@H](C=O)NC(=O)[C@H](CC(C)C)NC(=O)[C@H](CC(C)C)NC(C)=O` [ALLN] (Ac-Leu-Leu-[Nle]-aldehyde), in test [10], the “cyclinD1:Cdk4 complexes” value is reported as “accumulation of this complex in the nucleus”.

For the compound `Nc1ncnc2c1cnn2-c1ccccc1` [PP3], the “effect on PPAR-gamma:SRC-1 PCA” value in test [6] is given as “did not mimic”.

For indirubin-3′-monoxime, the “Limk2:cofilin complexes” value in test [11] is “almost completely eliminated”. The “Akt:Pdk1 complexes” value in test [3] was “negatively regulated”. In addition, the “Akt:p27 complexes” value in test [4] is given as “negatively regulated”.

For the compound `CC(C)C[C@H](NC(=O)c1ccc(NCc2cnc[nH]2)cc1-c1cccc2ccccc12)C(=O)O` [GGTI-2133], the “effect on βArr2:β2AR assay following isoproterenol stimulation” value in [12] (FIG. 19A, 2 μM ISO 30 min) is “no effect”.

In the case of `CN(CCOc1ccc(C[C@H](Nc2ccccc2C(=O)c2ccccc2)C(=O)O)cc1)c1ccccn1` [GW1929], in test [1] (PPARγ ligands, 480 minutes, FIG. 18), the “effect on Pin1/Jun PCA” value is “strong stimulation; also recorded: had an effect”.

Regarding “TRAIL: protein cytokine, a TNF-alpha-family ligand”, the “ELK: MAPK1 assay” value in test [13] is listed as “strongly induced”. Further, in test [14], the “MAPK1:MKNK1 assay” value was “strongly induced”. Further, the “activity on adrenergic GPCR assays” value in test [12] (480 minutes, FIG. 17 bars 3 & 4) is “no activity”.

With “EGF: epidermal growth factor; hEGF from Roche”, the ERK/MAP kinase phosphorylation result in test [7] (100 ng/ml hEGF, 5 min) is “highly induced”. Also, the phospho-Hsp27 result in test [8] (100 ng/ml hEGF, 5 min) is on record as “increased”. In test [9] (100 ng/ml hEGF, 5 min), the “formation of phospho-CREB” value was “induced”.

These data come from patent publication US20070212677A1, “Identifying off-target effects and hidden phenotypes of drugs in human cells” (Odyssey Thera, Inc., priority 2004, published 2007).
